Earlier results in US10098922B1, “Increasing telomere length in a cell” (priority 2017, dated 2018).

Tests used:
[1] = system: doxorubicin-induced leukopenia; settings: rats, oral by gavage
rats = settings: AC-11 80 mg/kg plus doxorubicin vs doxorubicin only

Mean heart weight coefficient (rats)	SMILES	Reversal of doxorubicin-induced leukopenia [1]
	O=C(O)[C@]1(O)C[C@@H](O)[C@@H](O)[C@H](O)C1 [QA, quinic acid]	about as effective as C-MED-100®
	N.O=C(O)C1(O)CC(O)C(O)C(O)C1 (stereo not drawn) [QAA]	about as effective as C-MED-100®
0.369%±0.022	COc1cccc2c1C(=O)c1c(O)c3c(c(O)c1C2=O)C[C@@](O)(C(=O)CO)C[C@@H]3O[C@H]1C[C@H](N)[C@H](O)[C@H](C)O1 [doxorubicin]	
